“Also recorded” adds a separate entry of the source.
System: keratinocytes
Experiment: Effect of vanadium compounds on proliferation of keratinocytes (hair follicle culture, cell count)
Assay type: cell-based
Conditions: 14 days at 31° C.; for amount of proliferated keratinocytes (number of cells per ml of culture medium): 1 mg/ml in basic SFK growth serum, relative to control SFK without vanadium compound
Description: Method: The hair follicles were transferred to a 24-well culture disk containing dSFK with […] penicillin (Life Technologies B.V. Breda, The Netherlands) and 0.25 μg/ml streptomycin (Life Technologies B.V. Breda, The Netherlands), and placed for 14 days in a culture medium at 31° C. in a humidified atmosphere containing 5% CO2. Three different culture medium were used: • Treatment group oxovanadium (OVAN): The culture medium is a composition comprising a basic SFK growth serum (purchased from the supplier SFK, Enschede The Netherlands) supplemented with either 1 mg/ml of OVAN. • Treatment group bis (maltolato) oxovanadium (BMOV): The culture medium is a composition comprising a basic SFK growth serum (purchased from the supplier SFK, Enschede The Netherlands) supplemented with either 1 mg/ml of BMOV. • Control group: The control situation consists of a composition comprising the SFK basic growth serum but without the vanadium compounds (i.e. OVAN or BMOV).
The respective culture media were carefully removed every three days and replaced by fresh culture media. The cells remained attached to the hair follicles during this culture period. After 14 days the culture medium was removed and replaced by a 0.5 mg/ml trypsin, 0.2 mg/ml EDTA (ethylene diaminetetraacetic acid) solution (Life Technologies B.V. Breda, The Netherlands), and incubated for 5 minutes at 37° C. in this medium. After this incubation period clusters of cells were released from the hair follicles. These were harvested by centrifugation at 300 g at 4° C. for 5 minutes in a Eppendorf 5804R Centrifuge (VWR International, The Netherlands). Number of cells were counted and expressed as amount of proliferated cells per ml of culture medium.

Molecule | proliferated keratinocytes, BMOV compared with OVAN (1 mg/ml each in basic SFK growth serum) | amount of proliferated keratinocytes (number of cells per ml of culture medium)
Cc1occc(=O)c1[O-].Cc1occc(=O)c1[O-].[O]=[V+2] [BMOV, bis(maltolato)oxovanadium] | more potent than OVAN; also recorded: greater number of proliferated cells relative to treatment with OVAN | significantly increased; also recorded: enhanced proliferation
oxovanadium | – | significantly increased; also recorded: enhanced proliferation

Source: patent publication US20200170244A1, “METHODS FOR PRESERVING, TRANSPORTING AND STORING LIVING BIOLOGICAL MATERIALS” (priority 2013, published 2020)
